A value given as a limit tells only on which side of the number the result lay.

The target in series [1] is Acetylcholinesterase (Homo sapiens, UniProt P22303). Briefly: Inhibition of human erythrocyte AChE using ATCI and BTCI as substrate preincubated for 5 mins followed by substrate addition and measured after 3 mins by DTNB-reagent based Ellman's method. In general terms: In Ellman's method for cholinesterases, released thiocholine reacts with DTNB.
A short description of series [2]: Acute toxicity in Kunming mouse assessed as abnormalities in lung at 2500 mg/kg, po measured on day 14 by H and E staining based histopathological analysis. The series is classed as organism-based. The note with it: in vivo, 336 h, time 14 day.
The target of series [3] is T1, Cholinesterase (Homo sapiens, UniProt P06276). Briefly: Inhibition of human serum BuChE using ATCI and BTCI as substrate preincubated for 5 mins followed by substrate addition and measured after 3 mins by DTNB-reagent based Ellman's method. Format: cell-free.
Series [4] relates to PC-12. Put plainly: Activation of Nrf2-ARE pathway in rat PC-12 cells assessed as upregulation of NQO1 expression level incubated for 8 hrs by Western blot analysis. Format: cell-based. The following applies: filed as activator, dose >= 2.0 µM. In general terms: Immunoblotting shows a protein as a band on a membrane.
In series [5] the test system is PC-12. Put plainly: Activation of Nrf2-ARE pathway in rat PC-12 cells assessed as increase in Nrf2 expression level incubated for 4 to 8 hrs by Western blot analysis. Format: cell-based. The note with it: filed as activator, dose >= 2.0 µM, time 4-8 hrs.
Series [6] concerns the target T1, Cholinesterase. Briefly: Mixed type inhibition of human BuChE assessed as inhibition constant using butyrylthiocholine iodide as substrate by lineweaver-burk plot analysis.
Series [7] can be described thus: Acute toxicity in Kunming mouse assessed as abnormalities in kidney at 2500 mg/kg, po measured on day 14 by H and E staining based histopathological analysis. The following applies: in vivo, 336 h, time 14 day. The series is classed as organism-based.
A short description of the next series: in vitro. The note with it: PAMPA. (PAMPA measures passive passage across an artificial lipid membrane.)
Series [8] is described as follows: Acute toxicity in Kunming mouse assessed as abnormalities in brain at 2500 mg/kg, po measured on day 14 by H and E staining based histopathological analysis. Format: organism-based. The note with it: in vivo, 336 h, time 14 day.
Series [9] in a line: Acute toxicity in Kunming mouse assessed as effect on body weight at 625 to 2500 mg/kg, po measured at 4 to 14 days. Format: organism-based. The following applies: in vivo, dose lower 625 mg/kg, time lower 4 day, dose upper 2500 mg/kg, time upper 14 day.
Series [10] is described as follows: Antioxidant activity assessed as trolox equivalent of ORAC radical scavenging activity by ORAC assay. The series is classed as functional.
The target in series [11] is Acetylcholinesterase (Electrophorus electricus, UniProt O42275). Briefly: Inhibition of electric eel AChE using ATCI and BTCI as substrate preincubated for 5 mins followed by substrate addition and measured after 3 mins by DTNB-reagent based Ellman's method.
Series [12] is described as follows: Selectivity index, ratio of IC50 for inhibition of human erythrocyte AChE to IC50 for inhibition of human serum BuChE.
Series [13] concerns PC-12. Briefly: Cytotoxicity against rat PC12 cells assessed as cell viability at 0.625 to 10 uM measured after 24 hrs by CCK-8 assay. The note with it: pc-12, 24 h, dose 0.625-10 µM. Format: toxicity, cell-based.
Series [14] is described as follows: Acute toxicity in Kunming mouse at >= 2500 mg/kg, IG measured for 14 days. Format: organism-based. The following applies: in vivo, po, 336 h, time 14 day.
The subject of series [15] is Mus musculus. Briefly: Antialzheimer activity in scopolamine-induced cognitive impairment Kunming mouse model assessed as number of errors in step down test at 80 mg/kg, po administered for 1 hr followed by scopolamine induction for 0.5 hr and measured after 5 min. Format: functional. The following applies: time 95 min, 1.583 h.
For series [16], the system named is Mus musculus. Briefly: Antialzheimer activity in scopolamine-induced cognitive impairment Kunming mouse model assessed as step down latency time at 80 mg/kg, po administered for 1 hr followed by scopolamine induction for 0.5 hr and measured after 5 min. The series is classed as functional. The note with it: time 95 min, 1.583 h.
Series [17] deals with Mus musculus. Put plainly: Antialzheimer activity in scopolamine-induced cognitive impairment Kunming mouse model assessed as number of errors in step down test at 20 mg/kg, po administered for 1 hr followed by scopolamine induction for 0.5 hr and measured after 5 min (Rvb=2.2). The series is classed as functional. The following applies: time 95 min, 1.583 h.
For series [18], the system named is Mus musculus. Briefly: Antialzheimer activity in scopolamine-induced cognitive impairment Kunming mouse model assessed as step down latency time at 20 mg/kg, po administered for 1 hr followed by scopolamine induction for 0.5 hr and measured after 5 min (Rvb=36.25 sec). The following applies: time 95 min, 1.583 h. The series is classed as functional.
Series [19] in a line: Acute toxicity in Kunming mouse assessed as abnormalities in liver at 2500 mg/kg, po measured on day 14 by H and E staining based histopathological analysis. The following applies: in vivo, 336 h, time 14 day. Format: organism-based.
Series [20] concerns PC-12. Put plainly: Activation of Nrf2-ARE pathway in rat PC-12 cells assessed as increase in Nrf2 expression level in nucleus at 1 uM by Western blot analysis. The series is classed as cell-based. The note with it: filed as activator, time >= 8.0 hrs, TDE = time-dependent effect.
A short description of series [21]: Cytotoxicity against mouse BV-2 cells assessed as cell viability at 10 uM measured after 24 hrs by CCK-8 assay. Format: toxicity, cell-based. The following applies: read-out: Activity.
Series [22] concerns PC-12. Briefly: Activation of Nrf2-ARE pathway in rat PC-12 cells assessed as upregulation of GPX4 expression level incubated for 8 hrs by Western blot analysis. The series is classed as cell-based. The following applies: filed as activator, dose >= 2.0 µM.
The target in series [23] is Cholinesterase (Equus caballus, UniProt P81908). Put plainly: Inhibition of equine serum BuChE using ATCI and BTCI as substrate preincubated for 5 mins followed by substrate addition and measured after 3 mins by DTNB-reagent based Ellman's method. Format: cell-free.
Chain of Cholinesterase (Equus caballus, UniProt P81908) (P81908 whole entry): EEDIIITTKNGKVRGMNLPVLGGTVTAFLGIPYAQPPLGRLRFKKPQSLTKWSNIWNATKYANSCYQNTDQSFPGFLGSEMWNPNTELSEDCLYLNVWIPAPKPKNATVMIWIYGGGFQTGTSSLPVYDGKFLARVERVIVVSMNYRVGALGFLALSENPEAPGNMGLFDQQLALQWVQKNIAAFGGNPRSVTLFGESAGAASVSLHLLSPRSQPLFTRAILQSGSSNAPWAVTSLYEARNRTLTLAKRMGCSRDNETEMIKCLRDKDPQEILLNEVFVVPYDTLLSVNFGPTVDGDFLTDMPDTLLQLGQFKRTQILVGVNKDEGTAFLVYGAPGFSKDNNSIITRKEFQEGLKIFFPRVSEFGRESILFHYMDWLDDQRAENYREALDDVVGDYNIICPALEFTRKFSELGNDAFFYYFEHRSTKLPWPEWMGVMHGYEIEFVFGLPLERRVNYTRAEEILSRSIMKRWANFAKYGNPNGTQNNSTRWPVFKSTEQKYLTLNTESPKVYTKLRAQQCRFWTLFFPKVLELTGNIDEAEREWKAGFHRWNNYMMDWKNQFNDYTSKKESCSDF

T1 sequence (P06276 whole entry): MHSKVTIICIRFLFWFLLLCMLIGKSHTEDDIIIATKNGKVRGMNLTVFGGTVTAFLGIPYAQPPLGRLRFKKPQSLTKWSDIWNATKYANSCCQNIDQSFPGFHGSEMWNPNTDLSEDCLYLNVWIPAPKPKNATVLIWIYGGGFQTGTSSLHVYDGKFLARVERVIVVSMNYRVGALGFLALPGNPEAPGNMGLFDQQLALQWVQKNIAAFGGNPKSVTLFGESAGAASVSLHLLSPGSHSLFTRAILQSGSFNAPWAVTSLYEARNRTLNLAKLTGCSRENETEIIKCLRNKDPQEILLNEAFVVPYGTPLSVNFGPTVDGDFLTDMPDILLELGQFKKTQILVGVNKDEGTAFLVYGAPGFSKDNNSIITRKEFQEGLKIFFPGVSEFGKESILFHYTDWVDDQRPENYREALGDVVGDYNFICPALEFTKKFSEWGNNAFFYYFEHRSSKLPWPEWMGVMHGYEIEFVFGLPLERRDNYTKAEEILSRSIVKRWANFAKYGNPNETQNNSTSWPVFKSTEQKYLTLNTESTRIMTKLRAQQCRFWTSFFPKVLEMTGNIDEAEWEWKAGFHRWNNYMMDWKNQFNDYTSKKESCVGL
Chain of Acetylcholinesterase (Electrophorus electricus, UniProt O42275) (O42275 whole entry): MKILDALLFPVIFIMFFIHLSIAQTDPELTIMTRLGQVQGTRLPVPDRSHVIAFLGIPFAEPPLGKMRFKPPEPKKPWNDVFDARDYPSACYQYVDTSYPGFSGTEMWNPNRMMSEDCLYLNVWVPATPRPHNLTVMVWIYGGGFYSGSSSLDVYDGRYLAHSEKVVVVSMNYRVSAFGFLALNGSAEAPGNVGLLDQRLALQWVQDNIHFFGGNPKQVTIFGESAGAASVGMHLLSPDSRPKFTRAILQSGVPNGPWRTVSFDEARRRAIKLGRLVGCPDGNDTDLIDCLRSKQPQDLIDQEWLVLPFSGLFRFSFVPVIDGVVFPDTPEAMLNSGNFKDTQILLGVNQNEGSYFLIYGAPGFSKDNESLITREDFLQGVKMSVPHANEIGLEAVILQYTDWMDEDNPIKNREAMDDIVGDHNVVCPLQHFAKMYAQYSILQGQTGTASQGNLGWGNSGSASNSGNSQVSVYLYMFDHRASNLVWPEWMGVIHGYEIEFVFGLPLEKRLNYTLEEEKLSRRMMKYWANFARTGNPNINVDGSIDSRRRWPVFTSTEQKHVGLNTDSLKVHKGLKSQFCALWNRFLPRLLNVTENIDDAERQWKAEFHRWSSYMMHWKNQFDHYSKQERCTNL
Chain of Acetylcholinesterase (Homo sapiens, UniProt P22303) (P22303 whole entry): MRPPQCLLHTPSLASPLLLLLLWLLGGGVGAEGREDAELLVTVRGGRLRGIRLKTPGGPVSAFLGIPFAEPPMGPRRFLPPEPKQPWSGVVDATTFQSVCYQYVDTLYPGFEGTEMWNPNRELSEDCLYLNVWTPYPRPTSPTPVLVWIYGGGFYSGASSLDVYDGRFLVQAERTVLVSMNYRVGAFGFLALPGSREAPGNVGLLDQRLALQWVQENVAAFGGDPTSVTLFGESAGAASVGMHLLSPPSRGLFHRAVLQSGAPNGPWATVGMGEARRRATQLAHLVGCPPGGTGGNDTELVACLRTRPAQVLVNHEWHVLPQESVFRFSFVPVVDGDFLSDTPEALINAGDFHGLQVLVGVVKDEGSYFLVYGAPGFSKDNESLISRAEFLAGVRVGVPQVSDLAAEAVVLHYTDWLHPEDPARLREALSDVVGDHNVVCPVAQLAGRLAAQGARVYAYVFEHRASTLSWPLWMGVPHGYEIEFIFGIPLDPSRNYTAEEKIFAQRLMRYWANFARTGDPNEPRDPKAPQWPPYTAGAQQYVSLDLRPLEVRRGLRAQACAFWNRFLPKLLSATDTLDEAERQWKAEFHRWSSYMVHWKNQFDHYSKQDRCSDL
Description for in vitro: Permeability coefficient of the compound across blood brain barrier incubated for 18 hrs by PAMPA assay

One may read the IC50 as the midpoint of a concentration-inhibition curve. The low end stands for inhibition by little substance, the high end for a need for much substance. By Ki is commonly meant the dissociation constant of the complex between target and ligand, obtained from inhibition or displacement. Broadly, the Papp is the rate of passage across a membrane or cell layer, normalised by area and donor concentration. Higher therefore signals fast passage. For `CN(CCCCCCCCCCCCn1cc(C=O)c2cc(O)ccc21)Cc1cccc(O)c1`, the IC50 at Acetylcholinesterase [1] came out at 177000 nM; on Cholinesterase [3] it was 1200 nM; at Acetylcholinesterase [11] it was 69500 nM; at Cholinesterase [23], 2140 nM. Besides, the Activity result in [2] was “Non-Toxic”; with PC-12 [4], “Dose-Dependent Effect”; in the series with PC-12 [5], “Dose-Dependent Effect”; in series [7], “Non-Toxic”; in [8] it was “Non-Toxic”; in [9], “Non-Toxic”. The Activity was 5.13 equiv in series [10]; “Non-Toxic” in the series on PC-12 [13]; “Non-Toxic” in series [14]; 0.6 in the series with Mus musculus [15]; 2.5 in the series on Mus musculus [17]; “Non-Toxic” in series [19]. In addition, the results for the Activity entry in the series on PC-12 [20] and in the series with PC-12 [22] were “Tde” and “Dose-Dependent Effect”, respectively. Moreover, the Ki at Cholinesterase [6] is 1770 nM. For the same compound, the Papp at 18 h in the series “in vitro” is 9.98 ×10⁻⁶ cm/s. For the same compound, the Ratio IC50 in series [12] was determined as 148. Besides, the values for the Time in the series with Mus musculus [16] and in the series with Mus musculus [18] were 233 s and 17.6 s, respectively. Moreover, the viability at 24 h, 10 µM in series [21] was over 50%.

(Values after ChEMBL document CHEMBL5236653, “Dual functional antioxidant and butyrylcholinesterase inhibitors for the treatment of Alzheimer's disease: Design, synthesis and evaluation of novel melatonin-alkylbenzylamine hybrids” (Bioorg Med Chem, 2023).)
